Earlier results on six compounds are cited in patent publication US20060287529A1, “Solid phase synthesis of antitumoral compounds” (priority 2003, published 2006).

Series [1] relates to P388 cell line. Particulars: P388 cell line in culture; background statement.
For series [2], the system named is A549 cell line. The note with it: A549 cell line in culture; background statement.
Series [3] has as its system fertilised sea urchin. The note with it: fertilised sea urchin assay; background statement.
Series [4] concerns lung cancer cell lines. Particulars: acting as a Type IV microtubule poison; background statement.

For lamellarin K, the cytotoxicity entry in series [1] and in series [2] was “comparable cytoxicity” throughout.

As for lamellarin D, the “inhibition of cell division” value in series [3] is on record as “inhibition of cell division”.

In the case of lamellarin I, the cytotoxicity entry in series [1] and in series [2] was “comparable cytoxicity” in each case.

Take `COc1ccc(-c2c3c4cc(OC)c(O)cc4oc(=O)c3n3ccc4cc(O)c(OC)cc4c23)cc1O` [lamellarin N, 3,10-dihydroxy-2,12-dimethoxy-14-(3′-hydroxy-4′-methoxy-phenyl)-6H-[1]benzopyrano[4′,3′:4,5]pyrrolo[2,1-α]isoquinolin-6-one]: in series [4], the “activity in lung cancer cell lines” value was “exhibit activity”.

In the case of `COc1ccc(-c2c3n(c4c(=O)oc5cc(O)c(OC)cc5c24)CCc2cc(O)c(OC)cc2-3)cc1O` [lamellarin L, 8,9-dihydro-3,11-dihydroxy-2,12-dimethoxy-14-(3′-hydroxy-4′-methoxy-phenyl)-6H-[1]benzopyrano[4′,3′:4,5]pyrrolo[2,1-α]isoquinolin-6-one], the cytotoxicity result in series [1] and in series [2] was “comparable cytoxicity” in each case.

Turning to `COc1cc(-c2c3n(c4c(=O)oc5cc(O)c(OC)cc5c24)CCc2c-3cc(OC)c(OC)c2OC)ccc1O` [lamellarin C], in series [3], the “inhibition of cell division” value was “inhibition of cell division”.
